HELM strings list units from the 5' end as sugar, base in round brackets, then linkage (d deoxyribose, r ribose, m 2'-O-methyl, p phosphodiester). Strings are as the collection lists them; they lack the last nucleoside at the 3' end of the tested compound. [moe] = 2'-O-(2-methoxyethyl) (MOE); [sp] = phosphorothioate linkage; [m5C] = 5-methylcytosine
Target: SOD1
Assay: mouse, dose not given
Conditions: ASO

RNA1{[moe]([m5C])[sp].[moe](A)p.[moe](G)[sp].[moe](G)p.[moe](A)[sp].d(T)[sp].d(A)[sp].d([m5C])[sp].d(A)[sp].d(T)[sp].d(T)[sp].d(T)[sp].d([m5C])[sp].d(T)[sp].d(A)[sp].[moe]([m5C])p.[moe](A)[sp].[moe](G)p.[moe]([m5C])}$$$$ (last 3' nucleoside missing)
3 h FOB score: 1.25 score 0-7

RNA1{[moe]([m5C])[sp].[moe]([m5C])[sp].[moe](G)[sp].[moe](T)[sp].[moe]([m5C])[sp].d(G)[sp].d([m5C])[sp].d([m5C])[sp].d([m5C])[sp].d(T)[sp].d(T)[sp].d([m5C])[sp].d(A)[sp].d(G)[sp].d([m5C])[sp].[moe](A)[sp].[moe]([m5C])[sp].[moe](G)[sp].[moe]([m5C])}$$$$ (last 3' nucleoside missing)
3 h FOB score: 6.5 score 0-7

From the OligoGym collection
